BindingDB's records for doi:10.7270/Q24T6GSH (The Scripps Research Institute Molecular Screening Center, 2007)
Structures can show the parent of a compound that is named as a salt.

These molecules were tested against T1, Isoform 2 of Nuclear receptor ROR-alpha (Alpha-2) (Homo sapiens, UniProt P35398) (assay: activators of RORA ligand-binding domain fusion – cell-based, CHO-K1, Gal4-RORA LBD, luciferase luminescence, counter-screen for SF-1 activator project, dose response (AID 675)). Conditions: not given.
T1 sequence (P35398 whole entry): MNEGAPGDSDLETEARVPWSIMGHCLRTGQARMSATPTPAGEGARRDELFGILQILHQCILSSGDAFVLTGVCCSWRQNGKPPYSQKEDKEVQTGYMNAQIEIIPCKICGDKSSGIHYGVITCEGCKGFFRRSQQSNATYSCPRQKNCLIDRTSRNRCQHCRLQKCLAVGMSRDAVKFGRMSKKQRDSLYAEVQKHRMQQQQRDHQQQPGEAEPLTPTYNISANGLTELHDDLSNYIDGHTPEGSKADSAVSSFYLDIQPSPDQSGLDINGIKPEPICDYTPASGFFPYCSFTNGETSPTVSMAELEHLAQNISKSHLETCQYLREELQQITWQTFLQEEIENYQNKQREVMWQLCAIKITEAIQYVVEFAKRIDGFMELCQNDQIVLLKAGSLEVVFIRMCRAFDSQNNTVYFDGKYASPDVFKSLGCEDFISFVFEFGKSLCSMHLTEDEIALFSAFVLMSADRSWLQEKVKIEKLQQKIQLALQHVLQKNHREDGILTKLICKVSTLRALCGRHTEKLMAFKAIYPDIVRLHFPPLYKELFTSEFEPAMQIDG

| EC50 [nM] | SMILES |
| --- | --- |
| 752 | CC1(C)Cc2c(sc(NC(=O)c3ccc(Br)o3)c2C#N)CO1 [5-bromanyl-N-(3-cyano-5,5-dimethyl-4,7-dihydrothieno[2,3-c]pyran-2-yl)furan-2-carboxamide] |
| 112 | Cc1nc2sc(-c3ccccc3)cc2c(=O)n1-n1cccc1 [2-methyl-6-phenyl-3-(1-pyrrolyl)-4-thieno[2,3-d]pyrimidinone] |
| 2530 | CC(C)(C)c1cc(NC(=O)C2CCCO2)no1 (configuration not stated) [MLS000065845] |
| > 407 | CN(C)c1ccc(NC(=O)Nc2cccc(Cl)c2)cc1 [1-(3-chlorophenyl)-3-[4-(dimethylamino)phenyl]urea] |
| 446 | O=C(Nc1ccc2c(c1)OCO2)c1ccc(COc2ccc3c(c2)CCC3)o1 [MLS000048173] |
| 3120 | COc1cccc2c(O)c(C(=O)NCc3cccs3)cnc12 [4-Hydroxy-8-methoxy-quinoline-3-carboxylic acid (thiophen-2-ylmethyl)-amide] |
| 886 | CCOc1ccc(N2C(=O)c3ccccc3C2O)cc1 (configuration not stated) [2-(4-ethoxyphenyl)-3-hydroxy-3H-isoindol-1-one] |
| > 3670 | CC(=Nc1cccc(O)c1)c1sc2ccccc2c1O [(2Z)-2-[1-(3-hydroxyanilino)ethylidene]-1-benzothiophen-3-one] |
| 2290 | Clc1ccc(-n2ncc3c(NCc4ccccn4)ncnc32)cc1 [1-(4-chlorophenyl)-N-(2-pyridinylmethyl)-4-pyrazolo[3,4-d]pyrimidinamine] |
| 5820 | CCn1c(SCC(=O)c2cccs2)nnc1-c1ccco1 [2-(4-Ethyl-5-furan-2-yl-4H-[1,2,4]triazol-3-ylsulfanyl)-1-thiophen-2-yl-ethanone] |
| 551 | Nc1nc2c(s1)CCc1c-2cnn1-c1ccccc1 [MLS000085948] |
| 1650 | N#CCc1ccc(NC(=O)Nc2cccc(Cl)c2)cc1 [1-(3-chlorophenyl)-3-[4-(cyanomethyl)phenyl]urea] |
| 1230 | O=C(CSc1ccccn1)c1ccc2c(c1)OCO2 [1-(1,3-benzodioxol-5-yl)-2-(2-pyridinylthio)ethanone] |
| 283 | COc1ccc(-c2cn3ccsc3n2)cc1 [6-(4-methoxyphenyl)imidazo[2,1-b][1,3]thiazole] |
| > 3670 | Nc1c(C(=O)NCc2ccco2)nnn1-c1ccccc1 [5-amino-N-(2-furanylmethyl)-1-phenyl-4-triazolecarboxamide] |
| 2930 | CC(=O)c1c(C)[nH]c(C(=O)NCCc2cccc(C)c2)c1C [MLS000045238] |
| 3690 | O=c1c2ccccc2nnn1CSc1nnc(COc2ccc(Cl)cc2)n1Cc1ccco1 [3-[[5-[(4-chloranylphenoxy)methyl]-4-(furan-2-ylmethyl)-1,2,4-triazol-3-yl]sulfanylmethyl]-1,2,3-benzotriazin-4-one] |
| > 99000 | COc1ccc(OC)c2sc(NC(=O)c3ccc(Br)s3)nc12 [5-bromanyl-N-(4,7-dimethoxy-1,3-benzothiazol-2-yl)thiophene-2-carboxamide] |
| > 11000 | O=C(Cc1ccccc1)n1nc(-c2ccccc2)nc1NCc1ccco1 [1-[5-(2-furanylmethylamino)-3-phenyl-1,2,4-triazol-1-yl]-2-phenylethanone] |

| EC50 [nM] | SMILES |
| --- | --- |
| > 1220 | COC(=O)CSc1nc2cc(C)ccc2cc1C#N [(3-Cyano-7-methyl-quinolin-2-ylsulfanyl)-acetic acid methyl ester] |
| 3190 | O=C(CNc1ccccc1)Nc1ccc(F)cc1 [2-anilino-N-(4-fluorophenyl)acetamide] |
| > 407 | Cc1ccc(C(=O)Nc2ncc(Cc3ccccc3)s2)o1 [5-Methyl-furan-2-carboxylic acid (5-benzyl-thiazol-2-yl)-amide] |
| > 11000 | O=C(CSc1nc2ccccc2o1)Nc1nc2ccccc2s1 [2-(Benzooxazol-2-ylsulfanyl)-N-benzothiazol-2-yl-acetamide] |
| 1890 | Cc1cccnc1Nc1nc(-c2ccc(O)cc2O)cs1 [4-[2-(3-Methyl-pyridin-2-ylamino)-thiazol-4-yl]-benzene-1,3-diol] |
| 1500 | COc1ccc(CNc2ccc(C(=O)O)cc2)cc1 [4-(p-anisylamino)benzoic acid] |
| 2220 | CN(C)c1oc(-c2ccc(OCc3ccccc3)cc2)nc1C#N [2-(4-benzoxyphenyl)-5-(dimethylamino)oxazole-4-carbonitrile] |
| 786 | Cc1ccc(C(=O)Nc2nnc(-c3cccs3)s2)cc1C [3,4-dimethyl-N-(5-thiophen-2-yl-1,3,4-thiadiazol-2-yl)benzamide] |
| 736 | CCOc1ccc(OCC)c(NC(=O)CSc2nc3c(c(=O)n(C)c(=O)n3C)n2C(C)C)c1 [MLS000072726] |
| 480 | O=C(Nc1ccc(CN2CCOCC2)cc1)c1cc2ccccc2o1 [MLS000062478] |
| > 99000 | COc1ccc(CNC(=O)NC2CCCCC2)cc1 [1-cyclohexyl-3-[(4-methoxyphenyl)methyl]urea] |
| 1720 | CCOC(=O)C1CCN(S(=O)(=O)c2ccc(-c3nc4ccccc4s3)s2)CC1 [1-[[5-(1,3-benzothiazol-2-yl)-2-thienyl]sulfonyl]isonipecotic acid ethyl ester] |
| > 99000 | CCc1nc(Nc2ccc3nccnc3c2)c2oc3ccccc3c2n1 [(2-ethylbenzofuro[3,2-d]pyrimidin-4-yl)-quinoxalin-6-yl-amine;hydrochloride] |
| 11000 | COc1cc(N2CCCC2)c(OC)cc1C=c1sc2nc3ccccc3n2c1=O [2-(2,5-dimethoxy-4-pyrrolidino-benzylidene)thiazolo[3,2-a]benzimidazol-1-one] |
| > 99000 | COc1ccc(NC(=O)c2ccc3c(c2)OCO3)cc1Cl [MLS000053302] |
| 3920 | COc1ccc(-c2cc(C(=O)N3CCCCC3)no2)cc1OC [1-{[5-(3,4-dimethoxyphenyl)isoxazol-3-yl]carbonyl}piperidine] |
| 5360 | CN(C)C(=O)CSc1nnc(C23CC4CC(CC(C4)C2)C3)o1 [SMR000077996] |
| > 136 | CC(C)(C)n1ncc2c(=O)n(CC(=O)NCc3ccccc3Cl)cnc21 [2-(1-tert-butyl-4-keto-pyrazolo[3,4-d]pyrimidin-5-yl)-N-(2-chlorobenzyl)acetamide] |
| 6790 | Nn1c(SCC(=O)Nc2ccc(F)cc2F)nnc1-c1cccnc1 [2-[(4-amino-5-pyridin-3-yl-1,2,4-triazol-3-yl)sulfanyl]-N-(2,4-difluorophenyl)acetamide] |

| EC50 [nM] | SMILES |
| --- | --- |
| 1230 | CCc1nnc(NC(=O)CSc2nc(C)c3c(c2C#N)CCCC3)s1 [2-[(4-cyano-1-methyl-5,6,7,8-tetrahydroisoquinolin-3-yl)sulfanyl]-N-(5-ethyl-1,3,4-thiadiazol-2-yl)acetamide] |
| 1570 | CCOC(=O)c1cc2cc(OC)ccc2[nH]1 [MLS000071430] |
| > 99000 | CN(C)C=Nc1ncnc2c1cnn2-c1ccc(C(F)(F)F)cn1 [MLS000087855] |
| 1470 | C=CCn1c(-c2ccccc2)c[nH]c1=S [MLS000071728] |
| 8560 | O=C(Nc1cccc(-c2nnc(-c3ccccc3)o2)c1)c1ccc(Br)o1 [5-bromanyl-N-[3-(5-phenyl-1,3,4-oxadiazol-2-yl)phenyl]furan-2-carboxamide] |
| 766 | COc1ccc2c(c1OC)C(=O)N1c3ccccc3SC21 (configuration not stated) [1,2-dimethoxy-4bH-isoindolo[1,2-b][1,3]benzothiazol-11-one] |
| 8140 | Cc1cc(C(=O)Nc2sc3c(c2C#N)CCC(C(C)(C)C)C3)no1 (configuration not stated) [MLS000087312] |
| 11200 | Cn1c(-c2ccc3c(c2)OCO3)cnc1NCc1ccccc1 [(5-Benzo[1,3]dioxol-5-yl-1-methyl-1H-imidazol-2-yl)-benzyl-amine] |
| 747 | CC(=O)Nc1ccc(-c2nc3c(C)cccc3[nH]2)cc1 [SMR000001134] |
| 596 | O=C(Nc1nnc(C2CCCCC2)s1)c1ccco1 [MLS000039439] |
| 1710 | CCOC(=O)CSc1nc(-c2ccncc2)ccc1C#N [2-[(3-cyano-6-pyridin-4-yl-2-pyridinyl)thio]acetic acid ethyl ester] |
| 7320 | CS(=O)(=O)c1ccc2nc(NC(=O)C3COc4ccccc4O3)sc2c1 (configuration not stated) [MLS000056123] |
| 1630 | Cc1ccc(-n2c(C)cc(C(=O)COC(=O)c3c(C)noc3C)c2C)cc1 [3,5-dimethyl-4-isoxazolecarboxylic acid [2-[2,5-dimethyl-1-(4-methylphenyl)-3-pyrrolyl]-2-oxoethyl] ester] |
| 10800 | Cc1cc2n(n1)C(c1ccc(N(C)C)cc1)Nc1ccccc1-2 (configuration not stated) [SMR000015202] |
| > 407 | CCc1nnc(NC(=O)CSc2nc3c(cc2C#N)CCC3)s1 [2-[(3-cyano-1-pyrindan-2-yl)thio]-N-(5-ethyl-1,3,4-thiadiazol-2-yl)acetamide] |
| 2710 | O=C(Nc1ccc(NC(=O)c2cccs2)cn1)c1ccco1 [Furan-2-carboxylic acid {5-[(thiophene-2-carbonyl)-amino]-pyridin-2-yl}-amide] |
| > 1220 | c1ccc(-c2cnc(CSc3nnc4ccccn34)o2)cc1 [5-phenyl-2-([1,2,4]triazolo[4,3-a]pyridin-3-ylsulfanylmethyl)-1,3-oxazole] |
| 595 | OCCOCCNc1ncnc2c1cnn2-c1ccc(Cl)cc1 [2-[2-[[1-(4-chlorophenyl)-4-pyrazolo[3,4-d]pyrimidinyl]amino]ethoxy]ethanol] |

Same assay, conditions: inactive by the depositor's call

| EC50 [nM] | SMILES |
| --- | --- |
| 12500 | CCN(CC)c1ccc(-n2cc3c(=O)n(C)c(=O)n(C)c3c2)cc1 [6-(4-Diethylamino-phenyl)-1,3-dimethyl-1,6-dihydro-pyrrolo[3,4-d]pyrimidine-2,4-dione] |
